“Also recorded” adds a separate entry of the source.

The target of one experiment is AbeH/Trp (uncultured bacterium, UniProt F6LWA5). Description: FAD fluorescence quenching titration with AbeH preincubated with Trp. Type of experiment: binding, uncultured soil actinomycetes. Here is the method:
Quenching of FAD fluorescence quenching upon binding to AbeH was measured in the absence and presence of Trp in 20 mM Tris-HCl pH 8.0 and 100 mM NaCl using a Quantmaster 40 fluorimeter (Photon Technologies International). Trp and FAD solutions were prepared in 20 mM Tris-HCl pH 8, and concentrations were determined by absorbance at 280 and 450 nm, respectively. FAD fluorescence was measured using excitation at 450 nm (4 nm slit opening) and emission set at 525 nm (6 nm slit opening) using a fluorescence cuvette to collect 50 scans, which were averaged later during data processing in Microsoft Excel. […] Raw fluorescence intensities were corrected for the buffer, Trp, and AbeH background contributions. Quenched fluorescence intensity was plotted vs AbeH concentration and fit to eq 1 using GraphPad Prism 8.0 by nonlinear regression analysis. In eq 1, F = fractional saturation, ΔF = fluorescence quenching upon AbeH/FAD complex formation (calculated from the difference of FAD fluorescence intensity at different AbeH concentration), ΔFmax = maximum fluorescence change obtained from fit, [AbeHFAD] = FAD-bound AbeH, [AbeH]T = Total AbeH concentration, [FAD]T = Total FAD concentration, KD = equilibrium dissociation constant. […]
A. Fluorescence quenching observed from binding of Apo-AbeH ([…]) to […] FAD; […]

Another experiment relates to BorH/Trp. Description: Isothermal titration calorimetry, FAD into BorH preincubated with Trp. It counts as binding, uncultured soil actinomycetes. Here is the method: ITC experiments were performed using a VP-ITC isothermal titration calorimeter (MicroCal) in 20 mM HEPES pH 7.5, 350 mM NaCl, 1 mM ethylenediamine tetraacetic acid (EDTA) and 15% (v/v) glycerol. Solutions of AbeH, BorH, FAD (Chem-Implex), and Trp (Acros Organics) were prepared in the same buffer and degassed under vacuum at 30 °C for 20 min before loading in the syringe or cell. To analyze formation of binary complexes, AbeH or BorH was placed inside the cell, and ligand (FAD or Trp) was injected. For ternary complex titration, one ligand was preincubated with the macromolecule for 30 min at 30 °C to form binary complexes of AbeH/FAD, AbeH/Trp, BorH/FAD, and BorH/Trp before titrating with the second ligand. […] Formation of FADH2 by sodium dithionite was verified using absorbance and fluorescence spectrophotometry.
ITC experiments were performed with reference power set to 10 μcal/s and Milli-Q water in the reference cell. […] Heats of dilution for all titrants were measured by titrating ligand into buffer for binary complex titrations, and by titrating ligand into a solution containing the other ligand but no protein for ternary complex titration. […]
Titrations were analyzed by manually integrating each injection, subtracting the heat of dilution, and carrying out nonlinear least-squares fit of the calorimetric binding data to a one-site model using Origin 7.0 (Origin Lab). […]

Another experiment has as its target AbeF. The following applies: read-out: KD, flavin binding to AbeF; cited from earlier work.

AbeH/Trp, sequence (F6LWA5 entry or part of it): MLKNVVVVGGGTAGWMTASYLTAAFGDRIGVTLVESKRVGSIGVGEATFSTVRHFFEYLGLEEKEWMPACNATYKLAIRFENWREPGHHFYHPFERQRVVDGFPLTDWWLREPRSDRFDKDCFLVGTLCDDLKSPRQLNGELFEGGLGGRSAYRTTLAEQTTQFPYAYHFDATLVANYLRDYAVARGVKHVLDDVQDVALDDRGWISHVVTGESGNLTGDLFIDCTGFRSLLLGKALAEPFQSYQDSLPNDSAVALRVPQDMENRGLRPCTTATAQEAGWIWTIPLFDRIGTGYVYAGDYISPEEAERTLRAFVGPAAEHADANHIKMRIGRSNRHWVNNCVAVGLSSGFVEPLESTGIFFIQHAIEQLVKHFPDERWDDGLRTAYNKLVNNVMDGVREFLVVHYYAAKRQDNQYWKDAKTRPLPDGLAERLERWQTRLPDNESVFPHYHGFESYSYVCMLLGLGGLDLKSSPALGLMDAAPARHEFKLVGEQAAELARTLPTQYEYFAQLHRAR

One may read the Kd as the concentration at which binding is half-saturated. On to `Cc1cc2nc3c(=O)[nH]c(=O)nc-3n(C[C@H](O)[C@H](O)[C@H](O)COP(=O)(O)OP(=O)(O)OC[C@H]3O[C@@H](n4cnc5c(N)ncnc54)[C@H](O)[C@@H]3O)c2cc1C` [FAD], for which the Kd was 3.1 µM at AbeH/Trp (AbeH/FAD KD, FAD fluorescence quenching (Figure S10 B), in the presence of 0.3 mM Trp); 7.7 ± 2.2 µM on AbeH/Trp (KD, FAD binding to AbeH/Trp, FAD fluorescence, AbeH preincubated with Trp); 0.8 µM at AbeF. The “Binding of FAD to preincubated BorH/Trp by ITC, in words” value in the experiment on BorH/Trp (0.63 mM FAD into 10 μM BorH preincubated with 18 mM Trp (95% saturated)) was “No binding was observed; also recorded: failed to detect any heat of binding; also recorded: no evidence of binding”. At BorH/Trp (BorH preincubated with Trp), the “KD, FAD binding to BorH/Trp, ITC” value is given as “no binding”.

The record behind these values is PMC11840605, “Crystallographic and Thermodynamic Evidence of Negative Coupling in the Flavin-Dependent Tryptophan Halogenases AbeH and BorH” (ACS Omega, 2025).
